Data on 4 molecules can be found in patent publication US20030012820A1, “Compressible guaifenesin compositions, method for making same and method for making compressed guaifenesin dosage forms therefrom” (priority 2001, published 2003).

Data set [1] can be described thus: Particle size distribution by sieve analysis. It is filed as physicochemical. An excerpt: USP grade guaifenesin powders GP-A, GP-B, GP-C and GP-D having the respective particle size distributions set forth below, were used in the examples. Guaifenesin powder GP-A was made by Rhodia Inc., guaifenesin powders GP-B, GP-C and GP-D were obtained from other commercial sources. In the tables below, the result “% R” for a sample means the amount of sample retained on the corresponding screen size set forth in the table, expressed as a percent by weight of the total sample amount, and the result “% CR” for a sample means the cumulative amount of the sample retained on all screen sizes larger than the corresponding screen size, expressed as a percent by weight of the total sample amount.
(§1) The particle size distribution, bulk density, moisture content and flow properties were measured for each of the compositions of Examples 1-10 and for Comparison Examples C1-C4. Comparison Examples C1-C4 were commercially available directly compressible guaifenesin compositions. Particle size distribution was measured by sieve analysis using screens of the indicated mesh sizes. Bulk density was measured using a VanKel cylinder. Moisture content was measured by Karl Fischer titration. Flow properties were measured using a VanKel flowmeter with a strip chart recorder. […] Results are given below in TABLES 1A, 1B and 1C

Data set [2] is described as follows: Bulk density, VanKel cylinder. It is filed as physicochemical. How it is done: as §1

Molecules are shown by their SMILES.

With `COc1ccccc1OCC(O)CO` (single isomer, unassigned) [GP-B, guaifenesin], the “% CR (cumulative amount retained)” value in data set [1] (US Mesh 20 (850 μm)) is listed as 0%; in data set [1] (US Mesh 40 (425 μm)), 0.4%; in data set [1] (US Mesh 60 (250 μm)), 0.4%; in data set [1] (US Mesh 80 (180 μm)) it was 2.4%; in data set [1] (US Mesh 100 (150 μm)), 3.2%; in data set [1] (US Mesh 200 (75 μm)), 11.2%. Further, the “% CR (cumulative amount retained)” value in data set [1] (US Mesh 325 (45 μm)) is 58.0%; in data set [1] (pan (<45 μm)), 100%. Besides, the “% R (amount retained on screen)” value was 0% in data set [1] (US Mesh 20 (850 μm)); 0.4% in data set [1] (US Mesh 40 (425 μm)); 0% in data set [1] (US Mesh 60 (250 μm)); 2.0% in data set [1] (US Mesh 80 (180 μm)); 0.8% in data set [1] (US Mesh 100 (150 μm)); 8.0% in data set [1] (US Mesh 200 (75 μm)). The “% R (amount retained on screen)” value in data set [1] (US Mesh 325 (45 μm)) is 46.8%. The “% R (amount retained)” value in data set [1] (pan (<45 μm)) turned out to be 42.0%. In addition, the “Bulk Density” value in data set [2] amounted to 0.41 g/cc.
For `COc1ccccc1OCC(O)CO` (single isomer, unassigned) [GP-C, guaifenesin], the “% CR (cumulative amount retained)” value in data set [1] (US Mesh 20 (850 μm)) is on record as 0%; in data set [1] (US Mesh 40 (425 μm)) it was 2.0%; in data set [1] (US Mesh 60 (250 μm)), 3.2%; in data set [1] (US Mesh 80 (180 μm)) it was 3.2%; in data set [1] (US Mesh 100 (150 μm)), 4.0%; in data set [1] (US Mesh 200 (75 μm)) it was 11.2%. The entries for the “% CR (cumulative amount retained)” value in data set [1] (US Mesh 325 (45 μm)) and in data set [1] (pan (<45 μm)) were 77.6% and 100%, respectively. Moreover, the “% R (amount retained on screen)” value in data set [1] (US Mesh 20 (850 μm)) was determined as 0%; in data set [1] (US Mesh 40 (425 μm)), 2.0%; in data set [1] (US Mesh 60 (250 μm)) it was 1.2%; in data set [1] (US Mesh 80 (180 μm)), 0%; in data set [1] (US Mesh 100 (150 μm)), 0.8%; in data set [1] (US Mesh 200 (75 μm)) it was 7.2%. Further, the “% R (amount retained on screen)” value in data set [1] (US Mesh 325 (45 μm)) is 66.4%. For the same molecule, in data set [1] (pan (<45 μm)), the “% R (amount retained)” value worked out at 22.4%. Also, in data set [2], the “Bulk Density” value came out at 0.35 g/cc.
`COc1ccccc1OCC(O)CO` (single isomer, unassigned) [GP-A, guaifenesin]: the “% CR (cumulative amount retained)” value is 0% in data set [1] (US Mesh 20 (850 μm)); 0% in data set [1] (US Mesh 40 (425 μm)); 0.8% in data set [1] (US Mesh 60 (250 μm)); 3.2% in data set [1] (US Mesh 80 (180 μm)); 7.6% in data set [1] (US Mesh 100 (150 μm)); 38.4% in data set [1] (US Mesh 200 (75 μm)). Besides, the entries for the “% CR (cumulative amount retained)” value in data set [1] (US Mesh 325 (45 μm)) and in data set [1] (pan (<45 μm)) were 76.8% and 100%, respectively. The “% R (amount retained on screen)” value turned out to be 0% in data set [1] (US Mesh 20 (850 μm)); 0% in data set [1] (US Mesh 40 (425 μm)); 0.8% in data set [1] (US Mesh 60 (250 μm)); 2.4% in data set [1] (US Mesh 80 (180 μm)); 4.4% in data set [1] (US Mesh 100 (150 μm)); 30.8% in data set [1] (US Mesh 200 (75 μm)). In addition, the “% R (amount retained on screen)” value in data set [1] (US Mesh 325 (45 μm)) was 38.4%. In addition, the “% R (amount retained)” value in data set [1] (pan (<45 μm)) was 23.2%. The “Bulk Density” value in data set [2] came out at 0.45 g/cc.
Regarding `COc1ccccc1OCC(O)CO` (single isomer, unassigned) [GP-D, guaifenesin], the “% CR (cumulative amount retained)” value in data set [1] (US Mesh 20 (850 μm)) is 0%; in data set [1] (US Mesh 40 (425 μm)) it was 0%; in data set [1] (US Mesh 60 (250 μm)), 0%; in data set [1] (US Mesh 80 (180 μm)), 3.2%; in data set [1] (US Mesh 100 (150 μm)), 9.6%; in data set [1] (US Mesh 200 (75 μm)), 60.0%. Further, the “% CR (cumulative amount retained)” value amounted to 89.6% in data set [1] (US Mesh 325 (45 μm)) and 100% in data set [1] (pan (<45 μm)). The “% R (amount retained on screen)” value in data set [1] (US Mesh 20 (850 μm)) is 0%; in data set [1] (US Mesh 40 (425 μm)), 0%; in data set [1] (US Mesh 60 (250 μm)), 0%; in data set [1] (US Mesh 80 (180 μm)), 3.2%; in data set [1] (US Mesh 100 (150 μm)), 6.4%; in data set [1] (US Mesh 200 (75 μm)), 50.4%. Further, in data set [1] (US Mesh 325 (45 μm)), the “% R (amount retained on screen)” value stood at 29.6%. Further, in data set [1] (pan (<45 μm)), the “% R (amount retained)” value is 10.4%. For the same molecule, the “Bulk Density” value in data set [2] came to 0.40 g/cc.
